Data set [1] concerns the target T1, Vasopressin V1a receptor (Homo sapiens, UniProt P37288). Put plainly: Antagonist activity at human V1a receptor expressed in human 1321N1 cells assessed as decrease in Arg8-vasopressin-stimulated calcium flux at 10 uM by fluorometric calcium assay relative to control. It is filed as functional, cell-based. On the technique in general: A change in cytosolic calcium serves as a functional read-out for many receptors and channels.
Target sequence in this assay (P37288 whole entry, looked up): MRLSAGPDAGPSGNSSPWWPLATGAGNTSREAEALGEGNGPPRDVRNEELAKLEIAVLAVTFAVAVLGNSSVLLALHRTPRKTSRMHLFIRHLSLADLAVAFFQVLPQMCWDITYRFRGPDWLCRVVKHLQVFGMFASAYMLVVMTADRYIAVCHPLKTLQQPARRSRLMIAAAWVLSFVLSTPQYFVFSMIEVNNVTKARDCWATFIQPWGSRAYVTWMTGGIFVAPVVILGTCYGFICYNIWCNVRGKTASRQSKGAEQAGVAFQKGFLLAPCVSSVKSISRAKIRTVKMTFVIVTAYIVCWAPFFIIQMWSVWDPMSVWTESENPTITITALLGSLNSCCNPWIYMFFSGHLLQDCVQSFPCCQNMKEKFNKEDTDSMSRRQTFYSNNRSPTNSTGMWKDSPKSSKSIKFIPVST

For data set [2], the target named is T1, Vasopressin V1a receptor. Briefly: Displacement of [3H]AVP from human V1a receptor expressed in […] cells assessed as dissociation constant by radioligand binding assay. It is filed as cell-based, 1321N1. For orientation: Displacement assays read how much labelled ligand stays bound in the presence of the test substance.
Target sequence in this assay (P37288 whole entry): as the sequence (P37288 whole entry, looked up) above
Data set [3] has as its target T1, Vasopressin V1a receptor. Put plainly: Antagonist activity at human V1a receptor expressed in human 1321N1 cells assessed as decrease in Arg8-vasopressin-stimulated calcium flux by fluorometric calcium assay. It is filed as functional, cell-based.
Target sequence in this assay (P37288 whole entry): as the sequence (P37288 whole entry, looked up) above
Data set [4] in a line: Metabolic stability in Wistar rat liver microsomes assessed as intrinsic clearance at 1 uM in presence of NADPH by HPLC-UV analysis. It is filed as ADME, Microsome. The conditions noted are these: read-out: CLH.
Data set [5] can be described thus: Metabolic stability in human liver microsomes assessed as intrinsic clearance at 1 uM in presence of NADPH by HPLC-UV analysis. It is filed as ADME, Microsome. Conditions: read-out: CLH. Background: Microsomes from liver hold many membrane-bound enzymes, among them those of drug oxidation.
Data set [6] can be described thus: Metabolic stability in NMRI mouse liver microsomes assessed as intrinsic clearance at 1 uM in presence of NADPH by HPLC-UV analysis. Conditions: read-out: CLH. It is filed as ADME, Microsome.
The nature of data set [7]: Apparent permeability across apical to basolateral side in human Caco-2 cells at 1 uM by HPLC-UV or UHPLC-MS/MS analysis. It is filed as ADME, cell-based.
Data set [8] in a line: Apparent permeability across apical to basolateral side in human Caco-2 cells at 10 uM by HPLC-UV or UHPLC-MS/MS analysis. It is filed as ADME, cell-based.
Data set [9] in a line: Efflux ratio of Apparent permeability across apical to basolateral side in human Caco-2 cells at 10 uM by HPLC-UV or UHPLC-MS/MS analysis. It is filed as ADME, cell-based.

By inhibition is commonly meant the relative decrease from the control value, in per cent. As a reminder, the Ki is the equilibrium dissociation constant of an inhibitor or competing ligand from its target. As usually defined, the IC50 is the concentration that gives 50% inhibition. As usually defined, the Papp A→B is how fast a substance crosses the layer from the apical side. What is called efflux ratio is the permeability from basolateral to apical divided by that in the opposite direction, in the common usage.

`CC(=O)N1CCN(C(=O)N2CCN(c3ccccc3C)CC2)c2ccc(F)cc21`: the inhibition on Vasopressin V1a receptor [1] (filed as antagonist) turned out to be 62%. In addition, the Ki on Vasopressin V1a receptor [2] worked out at 440 nM.
With `Cc1ccccc1N1CCN(C(=O)C2CN(C(=O)C3CC3)Cc3cc(Cl)ccc32)CC1` (racemic), the Ki at Vasopressin V1a receptor [2] was 25 nM.
Regarding `Cc1cccnc1N1CCN(C(=O)N2CCNc3cc(Cl)ccc32)CC1`, on Vasopressin V1a receptor [3], the IC50 is 450 nM. Besides, the Ki at Vasopressin V1a receptor [2] was found to be 2 nM.
For the compound `Cc1ccccc1N1CCN(C(=O)N2CCc3cc(Cl)ccc32)CC1`, on Vasopressin V1a receptor [3], the IC50 stood at 880 nM. On Vasopressin V1a receptor [2], the Ki is 15 nM.
In the same order, the values of `Cc1ccccc1N1CCN(C(=O)C2CN(C(=O)C3CC3)Cc3cc(Cl)ccc32)CC1` (stereo in doubt; (+)-44) are 180 nM and 5 nM.
In the same order, the values of `Cc1ccccc1N1CCN(C(=O)N2CN(S(C)(=O)=O)Cc3cc(Cl)ccc32)CC1` are 20 nM and 5.3 nM.
Take `Cc1ccccc1N1CCN(C(=O)N2C[C@@H](C(=O)C3CCCC3)Cc3cc(Cl)ccc32)CC1`: the microsomal CLint at 1 µM amounted to 170 µL/min/mg in data set [4], 72 µL/min/mg in data set [5] and 235 µL/min/mg in data set [6]. Moreover, the Papp A→B at 1 µM in data set [7] turned out to be 10 ×10⁻⁶ cm/s. Also, the IC50 on Vasopressin V1a receptor [3] was found to be 2.4 nM. For the same compound, the Ki at Vasopressin V1a receptor [2] stood at 0.6 nM.
For `CC(=O)N1Cc2cc(Cl)ccc2N(C(=O)N2CCN(c3ccccc3C)CC2)C1`, the values for the microsomal CLint at 1 µM in [4], in data set [5] and in [6] were 212 µL/min/mg, 88 µL/min/mg and 324 µL/min/mg, respectively. For the same compound, the Papp A→B at 10 µM in data set [8] turned out to be 39 ×10⁻⁶ cm/s. In addition, in data set [9], the efflux ratio at 10 µM was determined as 0.7. Besides, the IC50 on Vasopressin V1a receptor [3] amounted to 50 nM. The Ki on Vasopressin V1a receptor [2] was determined as 6 nM.
Turning to `CN(C)CCn1cc(C(=O)N2CCC3(CC2)OCc2ccccc23)c2ccc(Cl)cc21` [RO-5028442], the results for the microsomal CLint at 1 µM in [4], in data set [5] and in [6] were 130 µL/min/mg, 20 µL/min/mg and 341 µL/min/mg, respectively. In addition, the Papp A→B at 10 µM in data set [8] was 15 ×10⁻⁶ cm/s. The efflux ratio at 10 µM in data set [9] worked out at 0.9. Moreover, at Vasopressin V1a receptor [3], the IC50 worked out at 2 nM. In addition, the inhibitory constant (Ki) at Vasopressin V1a receptor [2] is 5.5 nM.
`Cc1ccccc1N1CCN(C(=O)N2CCCc3cc(Cl)ccc32)CC1`: at Vasopressin V1a receptor [3], the IC50 worked out at 200 nM. Further, at Vasopressin V1a receptor [2], the Ki came to 4 nM.
The matching figures for `Cc1ccccc1N1CCN(C(=O)N2CN(C(=O)c3ccccc3)Cc3cc(Cl)ccc32)CC1`: 35 nM and 3 nM.
For `CN1CCN(C(=O)N2CCN(c3ncccc3Cl)CC2)c2ccc(Cl)cc21`, the IC50 on Vasopressin V1a receptor [3] came to 55 nM. In addition, the Ki at Vasopressin V1a receptor [2] was 2 nM.
The matching figures for `O=C(N1CCC2(CC1)OCc1ccccc12)N1CCNc2cc(Cl)ccc21`: 280 nM and 4 nM.
In the case of `Cc1ccccc1N1CCN(C(=O)C2CN(C(=O)C3CCCCC3)Cc3cc(Cl)ccc32)CC1` (stereo in doubt; (-)-47), the IC50 at Vasopressin V1a receptor [3] worked out at 280 nM. Besides, the Ki at Vasopressin V1a receptor [2] was found to be 40 nM.
In the same order, the values of `O=C(N1CCN(c2ccccn2)CC1)N1CCNc2cc(Cl)ccc21` are 6800 nM and 160 nM.
As to `Cc1ccccc1N1CCN(C(=O)C2CN(C(=O)C3CCCCC3)Cc3cc(Cl)ccc32)CC1` (racemic), the IC50 at Vasopressin V1a receptor [3] is 40 nM. Further, the Ki on Vasopressin V1a receptor [2] is 5 nM.
In the same order, the values of `C[C@H]1CN(C(=O)N2CCNc3cc(Cl)ccc32)CCN1c1ccccn1` are 1000 nM and 62 nM.
With `Cc1ccccc1N1CCN(C(=O)C2CN(C(=O)C3CCCC3)Cc3cc(Cl)ccc32)CC1` (racemic), the microsomal CLint at 1 µM in [4] worked out at 179 µL/min/mg; in [5], 188 µL/min/mg; in [6], 341 µL/min/mg. The Papp A→B at 1 µM in data set [7] came to 4.3 ×10⁻⁶ cm/s. The concentration for half-maximal inhibition (IC50) on Vasopressin V1a receptor [3] came to 35 nM. On Vasopressin V1a receptor [2], the Ki came to 6 nM.
Regarding `C[C@@H]1CN(C(=O)N2CCNc3cc(Cl)ccc32)CCN1c1ccccn1`, the inhibition at Vasopressin V1a receptor [1] (filed as antagonist) came out at 57%. Moreover, at Vasopressin V1a receptor [2], the inhibitory constant (Ki) came to 310 nM.
As to `O=C(N1CCC(N2CCCCC2)CC1)N1CCNc2cc(Cl)ccc21`, the inhibition at Vasopressin V1a receptor [1] is 11%.
Turning to `Cc1ccccc1N1CCN(C(=O)N2CN(C)Cc3cc(Cl)ccc32)CC1`, at Vasopressin V1a receptor [3], the IC50 came to 85 nM. Besides, the Ki on Vasopressin V1a receptor [2] stood at 3 nM.
The matching figures for `Cc1ccccc1N1CCN(C(=O)N2CN(C(=O)CO)Cc3cc(Cl)ccc32)CC1`: 35 nM and 4 nM.
In the same order, the values of `Cc1ccccc1N1CCN(C(=O)N2CCNc3ccccc32)CC1` are 2800 nM and 70 nM.
In the same order, the values of `CC(=O)N1CCN(C(=O)N2CCN(c3ccccc3C)CC2)c2ccc(Cl)cc21` are 1400 nM and 13 nM.
For the compound `Cc1ccccc1N1CCN(C(=O)N2CCNc3ccc(Cl)cc32)CC1`, on Vasopressin V1a receptor [3], the IC50 turned out to be 1400 nM. Further, the Ki at Vasopressin V1a receptor [2] was found to be 560 nM.
With `Cc1ccccc1N1CCN(C(=O)N2C[C@H](C(=O)C3CCCC3)Cc3cc(Cl)ccc32)CC1`, the IC50 at Vasopressin V1a receptor [3] came to 25 nM. The Ki on Vasopressin V1a receptor [2] stood at 2.3 nM.
As to `Cc1ccccc1N1CCN(C(=O)C2CN(C(=O)C3CC3)Cc3cc(Cl)ccc32)CC1` (single isomer, unassigned; (-)), the Ki on Vasopressin V1a receptor [2] turned out to be 80 nM.
Turning to `Cc1cccnc1N1CCN(C(=O)N2CCNc3cc(Cl)ccc32)[C@H](C)C1`, the IC50 on Vasopressin V1a receptor [3] was 750 nM. Also, the Ki on Vasopressin V1a receptor [2] worked out at 70 nM.
The matching figures for `Cc1ccccc1N1CCN(C(=O)N2CN(C(=O)C3CCCC3)Cc3cc(Cl)ccc32)CC1`: 11 nM and 1 nM.
Take `Cc1ccccc1N1CCN(C(=O)c2ccc(Cl)c(NC(=O)c3cccs3)c2)CC1`: the half-maximal inhibitory concentration (IC50) on Vasopressin V1a receptor [3] turned out to be 800 nM. Moreover, the Ki at Vasopressin V1a receptor [2] worked out at 170 nM.
For the compound `Cc1ccccc1N1CCN(C(=O)N2CN(C(=O)C3CCCCC3)Cc3cc(Cl)ccc32)CC1`, the Ki at Vasopressin V1a receptor [2] was determined as 5 nM.
Consider `Cc1ccccc1N1CCN(C(=O)N2CCCCc3cc(Cl)ccc32)CC1`, for which the IC50 on Vasopressin V1a receptor [3] stood at 390 nM. In addition, the Ki at Vasopressin V1a receptor [2] was determined as 5 nM.
Regarding `Cc1ccccc1N1CCN(C(=O)N2CN(C(=O)C3CC3)Cc3cc(Cl)ccc32)CC1`, the IC50 on Vasopressin V1a receptor [3] came out at 10 nM. Also, at Vasopressin V1a receptor [2], the Ki worked out at 3.3 nM.
In the same order, the values of `Cc1ccccc1N1CCN(C(=O)C2CN(C(=O)C3CCCCC3)Cc3cc(Cl)ccc32)CC1` (single isomer, unassigned; (+)) are 21 nM and 4 nM.
In the same order, the values of `Cc1ccccc1N1CCN(C(=O)N2CCN(C)c3cc(Cl)ccc32)CC1` are 300 nM and 7 nM.
With `C[C@H](NC(=O)[C@@H](CC(=O)N1CCC(N2CCCCC2)CC1)N1C(=O)[C@@H](N2C(=O)OC[C@@H]2c2ccccc2)[C@H]1/C=C/c1ccccc1)c1ccccc1`, the microsomal CLint at 1 µM in data set [4] stood at 31 µL/min/mg; in data set [5] it was 156 µL/min/mg; in data set [6] it was 199 µL/min/mg. Further, the Papp A→B at 10 µM in data set [8] was 4.7 ×10⁻⁶ cm/s.
For `Cc1ccccc1N1CCN(C(=O)N2CNCc3cc(Cl)ccc32)CC1`, the IC50 at Vasopressin V1a receptor [3] is 40 nM. The Ki on Vasopressin V1a receptor [2] is 3 nM.
Regarding `Cc1ccccc1N1CCN(C(=O)N2CCNc3cc(Cl)ccc32)CC1`, the microsomal CLint at 1 µM in data set [4] is 265 µL/min/mg; in data set [5], 210 µL/min/mg; in [6] it was 66 µL/min/mg. Further, the Papp A→B at 1 µM in [7] was determined as 17 ×10⁻⁶ cm/s. The IC50 at Vasopressin V1a receptor [3] came to 80 nM. Besides, the Ki at Vasopressin V1a receptor [2] is 4.1 nM.
With `CN1CCN(C(=O)C2CCN(c3ccccn3)CC2)c2ccc(Cl)cc21`, the microsomal CLint at 1 µM worked out at 404 µL/min/mg in data set [4], 80 µL/min/mg in [5] and 132 µL/min/mg in [6]. Also, in [8], the Papp A→B at 10 µM is 48 ×10⁻⁶ cm/s. Also, in data set [9], the efflux ratio at 10 µM is 0.7. Moreover, on Vasopressin V1a receptor [3], the IC50 came out at 260 nM. The Ki at Vasopressin V1a receptor [2] came out at 14 nM.
As to `Cc1ccccc1N1CCN(C(=O)C2CN(C(=O)C(C)C)Cc3cc(Cl)ccc32)CC1` (racemic), the IC50 at Vasopressin V1a receptor [3] is 135 nM. Moreover, the Ki at Vasopressin V1a receptor [2] was 5 nM.
The matching figures for `O=C(N1CCN(c2ncccc2Cl)CC1)N1CCNc2cc(Cl)ccc21`: 170 nM and 6 nM.
Turning to `O=C(N1CCN(Cc2ccccc2)CC1)N1CCNc2cc(Cl)ccc21`, the IC50 on Vasopressin V1a receptor [3] stood at 8300 nM. Moreover, the Ki at Vasopressin V1a receptor [2] was 164 nM.
In the same order, the values of `Cc1ccccc1N1CCN(C(=O)N2CN(C(=O)C(C)C)Cc3cc(Cl)ccc32)CC1` are 11 nM and 2.6 nM.
As to `Cc1ccccc1C1CCN(C(=O)N2CCNc3cc(Cl)ccc32)CC1`, the concentration for half-maximal inhibition (IC50) at Vasopressin V1a receptor [3] turned out to be 380 nM. For the same compound, on Vasopressin V1a receptor [2], the Ki came to 3 nM.
For the compound `Cc1ccccc1N1CCN(C(=O)N2CN(C(=O)C3(c4ccc(F)cc4)CC3)Cc3cc(Cl)ccc32)CC1`, the Ki on Vasopressin V1a receptor [2] worked out at 23 nM.

The record behind these values is ChEMBL document CHEMBL4725303, “New V1a receptor antagonist. Part 1. Synthesis and SAR development of urea derivatives” (Bioorg Med Chem Lett, 2020).
